Entries after “also recorded” stand apart in the source; their conditions may differ.
Legend:
S. aureus SbnB mutant = format: cell-based; settings: compound added to growth media
Description: (§1) Using SbnA and SbnB mutants in growth culture assays, compounds were added to the growth media and tested for the ability to overcome the iron-restricted phenotype.

S. aureus SbnA mutant = assay: growth culture assay, compounds added to overcome iron-restricted growth defect of SbnA mutant; format: cell-based; settings: compound added to growth media; data not shown
Description: as §1

wildtype S. aureus = assay: disc growth assay with cell-free synthesized staphyloferrin A, wildtype; format: cell-based; settings: paper disk on agar plate, 37° C. for 24 hours
Description: (§2) Growth radius was measured around the disc after incubation of plates at 37° C. for 24 hours.

SirA mutant = assay: disc growth assay with cell-free synthesized staphyloferrin A, SirA mutant; format: cell-based, S. aureus; settings: paper disk on agar plate, 37° C. for 24 hours
Description: as §2

Hts mutant = assay: disc growth assay with cell-free synthesized staphyloferrin A, Hts mutant; format: cell-based, S. aureus; settings: paper disk on agar plate, 37° C. for 24 hours
Description: as §2

HtsSir mutant = assay: disc growth assay with cell-free synthesized staphyloferrin A, HtsSir mutant; format: cell-based, S. aureus; settings: paper disk on agar plate, 37° C. for 24 hours
Description: as §2

SbnE = target: T1, SbnE (Staphylococcus aureus, UniProt Q2G1M9); assay: hydroxylamine trapping (hydroxamate formation) assay, SbnE; format: biochemical, S. aureus; settings: 5 μM enzyme, 3 mM substrate
T1 construct: 6xHis; made in house; host or cells: E. coli BL21 (DE3)
T1 sequence (Q2G1M9 whole entry): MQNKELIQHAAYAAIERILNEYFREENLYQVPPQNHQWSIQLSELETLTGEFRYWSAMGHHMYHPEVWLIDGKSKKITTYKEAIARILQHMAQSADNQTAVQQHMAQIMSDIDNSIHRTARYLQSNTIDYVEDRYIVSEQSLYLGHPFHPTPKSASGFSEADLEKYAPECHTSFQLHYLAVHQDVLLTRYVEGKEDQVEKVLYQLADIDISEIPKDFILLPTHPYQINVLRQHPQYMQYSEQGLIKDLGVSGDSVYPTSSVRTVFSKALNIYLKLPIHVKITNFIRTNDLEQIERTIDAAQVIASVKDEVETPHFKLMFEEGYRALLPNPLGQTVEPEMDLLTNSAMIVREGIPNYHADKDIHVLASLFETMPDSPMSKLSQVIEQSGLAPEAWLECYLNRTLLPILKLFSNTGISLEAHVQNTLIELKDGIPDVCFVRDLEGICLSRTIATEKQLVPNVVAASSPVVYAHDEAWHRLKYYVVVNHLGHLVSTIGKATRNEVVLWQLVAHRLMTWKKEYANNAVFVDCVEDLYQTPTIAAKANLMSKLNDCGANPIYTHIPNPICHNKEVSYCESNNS
Description: All reactions were performed in 300 μL volumes and the following were common to each reaction: 2.25 mM ATP, 15 mM MgCl2, 150 mM hydroxylamine, and 50 mM HEPES pH 7.4. […] The supernatant which now contains the citryl-Dae intermediate was incubated with fresh 5 μM SbnF or SbnC, 2.25 mM ATP, and 150 mM hydroxylamine. To assess the potential recognition of citryl-Dap as a substrate for SbnF or SbnC, this intermediate was formed as described above except that Dae was replaced with 50 mM Dap instead. For each reaction, a duplicate control reaction was prepared in which the enzyme was previously inactivated by heating at 100° C. for 10 minutes. All reactions described above were incubated at room temperature in the dark for 1 hour before addition of 300 μL stopping solution which consisted of 10% (w/v) FeCl3 and 3.3% (w/v) trichloroacetic acid in 0.7 M HCl. Reactions were centrifuged at 20 000×g for 5 minutes to remove precipitate and the formation of ferric hydroxamate was detected spectrophotometrically at 540 nm. Relative absorbance values reported in this study were calculated by subtracting the absorbance of the control (boiled enzyme) reactions from the absorbance of experimental reactions.
Essentially, this assay is used to monitor the specific activity of a synthetase towards a particular carboxylic acid.

SbnF = target: T2, SbnF (Staphylococcus aureus, UniProt Q2G1M8); assay: hydroxylamine trapping (hydroxamate formation) assay, SbnF; format: biochemical, S. aureus; settings: 5 μM enzyme
T2 construct: 6xHis; made in house; host or cells: E. coli BL21 (DE3)
T2 sequence (Q2G1M8 25-616 limits assumed): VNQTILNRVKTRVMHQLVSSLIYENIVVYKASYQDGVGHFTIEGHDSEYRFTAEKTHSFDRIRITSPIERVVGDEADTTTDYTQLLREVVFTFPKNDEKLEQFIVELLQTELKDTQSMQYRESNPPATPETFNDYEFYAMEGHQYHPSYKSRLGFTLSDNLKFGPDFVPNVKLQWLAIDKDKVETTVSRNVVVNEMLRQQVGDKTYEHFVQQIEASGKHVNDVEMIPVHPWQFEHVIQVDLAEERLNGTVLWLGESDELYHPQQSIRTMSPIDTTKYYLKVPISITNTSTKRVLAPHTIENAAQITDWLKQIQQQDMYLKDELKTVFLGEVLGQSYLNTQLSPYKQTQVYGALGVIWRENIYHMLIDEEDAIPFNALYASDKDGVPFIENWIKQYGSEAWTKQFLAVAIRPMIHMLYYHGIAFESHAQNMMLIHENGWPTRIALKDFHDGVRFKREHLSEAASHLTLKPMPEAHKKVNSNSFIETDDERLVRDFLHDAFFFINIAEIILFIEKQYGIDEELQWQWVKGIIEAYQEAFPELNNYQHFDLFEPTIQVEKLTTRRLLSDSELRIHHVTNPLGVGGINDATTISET
Description: All reactions were performed in 300 μL volumes and the following were common to each reaction: 2.25 mM ATP, 15 mM MgCl2, 150 mM hydroxylamine, and 50 mM HEPES pH 7.4. […] Similarly, to assess which enzyme utilized α-KG as a substrate, 5 μM of SbnC, SbnE, or SbnF were incubated with 3 mM α-KG and the common reaction components. […] This reaction was then heat treated at 70° C. to deactivate SbnE and the reaction was then centrifuged at 14 500 rpm for 10 minutes to pellet precipitated enzyme. The supernatant which now contains the citryl-Dae intermediate was incubated with fresh 5 μM SbnF or SbnC, 2.25 mM ATP, and 150 mM hydroxylamine. To assess the potential recognition of citryl-Dap as a substrate for SbnF or SbnC, this intermediate was formed as described above except that Dae was replaced with 50 mM Dap instead. For each reaction, a duplicate control reaction was prepared in which the enzyme was previously inactivated by heating at 100° C. for 10 minutes. All reactions described above were incubated at room temperature in the dark for 1 hour before addition of 300 μL stopping solution which consisted of 10% (w/v) FeCl3 and 3.3% (w/v) trichloroacetic acid in 0.7 M HCl. Reactions were centrifuged at 20 000×g for 5 minutes to remove precipitate and the formation of ferric hydroxamate was detected spectrophotometrically at 540 nm. Relative absorbance values reported in this study were calculated by subtracting the absorbance of the control (boiled enzyme) reactions from the absorbance of experimental reactions.

HtsA = assay: heme binding to purified HtsA (absorption spectra); parameters: species or system S. aureus; settings: in comparison to IsdE
From the text: FIG. 10 illustrates the absorption spectra of purified IsdE, HtsA and SirA proteins in the absence of heme (A) and on exposure to heme (B);
In liquid growth assays, no attenuation of the htsABC deletion mutant, H1665, when grown on heme as a sole iron source (data not shown) was observed.

[1] = system: siderophore-deficient S. aureus (ΔsfaΔsbn); assay: iron-starved growth of siderophore-deficient S. aureus with in vitro synthesized staphyloferrin B; format: cell-based; settings: enzymatic reaction material from complete reactions, increasing amounts
Description: Bacteria were cultured for 12 hours in TMS broth then 12 hours in TMS broth containing 100 μM 2,2′-dipyridyl (Sigma-Aldrich). Cells were washed twice in saline, and diluted 1:100 into 60% horse serum (Sigma-Aldrich)—40% TMS broth. For iron-replete media, 50 μM FeCl3 was included. Cultures were grown under constant, medium amplitude shaking in a Bioscreen C machine (Growth Curves, USA). Optical density was measured at 600 nm every 30 min. However, for clarity of growth curve figures, data are shown only at 2-hour intervals.
This staphyloferrin B-dependent growth promotion was mediated by the ABC transporter SirABC (FIG. 14B), which is encoded by the sirABC operon divergently transcribed from the sbn operon (FIG. 13A).

SbnC = target: T3, SbnC (Staphylococcus aureus, UniProt Q2G1N1); assay: hydroxylamine trapping (hydroxamate formation) assay, SbnC; format: biochemical, S. aureus; settings: 5 μM enzyme, 3 mM substrate
T3 construct: 6xHis; made in house; host or cells: E. coli BL21 (DE3)
T3 sequence (Q2G1N1 1-584): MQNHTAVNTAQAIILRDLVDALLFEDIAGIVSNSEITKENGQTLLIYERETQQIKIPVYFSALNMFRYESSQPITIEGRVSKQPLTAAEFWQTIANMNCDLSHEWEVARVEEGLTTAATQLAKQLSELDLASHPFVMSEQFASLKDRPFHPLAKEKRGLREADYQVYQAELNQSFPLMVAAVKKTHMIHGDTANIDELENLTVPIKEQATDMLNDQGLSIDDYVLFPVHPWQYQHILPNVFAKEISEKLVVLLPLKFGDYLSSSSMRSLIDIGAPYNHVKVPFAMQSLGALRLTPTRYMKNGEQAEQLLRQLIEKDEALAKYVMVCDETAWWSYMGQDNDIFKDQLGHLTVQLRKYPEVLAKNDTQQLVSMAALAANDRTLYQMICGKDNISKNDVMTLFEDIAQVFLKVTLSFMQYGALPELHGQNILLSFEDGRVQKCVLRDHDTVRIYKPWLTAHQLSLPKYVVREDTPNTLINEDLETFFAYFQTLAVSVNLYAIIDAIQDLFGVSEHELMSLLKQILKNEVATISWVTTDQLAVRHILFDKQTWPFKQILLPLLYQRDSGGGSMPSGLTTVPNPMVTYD
Description: To assess the potential recognition of citryl-Dap as a substrate for SbnF or SbnC, this intermediate was formed as described above except that Dae was replaced with 50 mM Dap instead. For each reaction, a duplicate control reaction was prepared in which the enzyme was previously inactivated by heating at 100° C. for 10 minutes. All reactions described above were incubated at room temperature in the dark for 1 hour before addition of 300 μL stopping solution which consisted of 10% (w/v) FeCl3 and 3.3% (w/v) trichloroacetic acid in 0.7 M HCl. Reactions were centrifuged at 20 000×g for 5 minutes to remove precipitate and the formation of ferric hydroxamate was detected spectrophotometrically at 540 nm. Relative absorbance values reported in this study were calculated by subtracting the absorbance of the control (boiled enzyme) reactions from the absorbance of experimental reactions.

[2] = chrome azurol S (CAS) assay of iron chelating / siderophore activity; settings: SbnE reaction product
From the text: Strains of S. aureus containing complete sbn operon deletions (i.e. deleted for all of sbnA through sbnI genes) were constructed. In S. aureus Newman background, the sbn deletion strain was called H1331 whereas in RN6390 background, it was called H1324. […] Supplementation of serum growth media with iron obviated the growth defect of H1331 (FIG. 1, inset), and suppressed siderophore production in both Newman and H1331 (FIG. 2). […] To ensure that this was not due to a strain-specific phenomenon, all experiments described above were repeated using instead the RN6390 genetic background (i.e. RN6390 vs. H1324). Equivalent results were obtained (data not shown).
To measure levels of siderophore activity, chrome azurol S (CAS) shuttle solution was prepared as described. In the case of in vitro synthesized staphyloferrin B, 50 μL of the reaction mixture were removed and diluted in 450 μL of deionized water followed by 500 μL of CAS shuttle solution in a 1 ml spectrophotometer cuvette. The mixture was then incubated in the dark for 45 minutes. Siderophore quantification and absorbance readings were performed as described (Beasley et al., 2009).

S. aureus = assay: promotion of iron-starved growth of S. aureus; format: cell-based; settings: SbnE reaction product; data not shown
Description: Siderophore plate bioassays were performed as described (Beasley et al., 2009). Growth promotion, as measured by the diameter of the growth halo around each disk, was determined after 36 h incubation at 37° C.

Question: What does the source list for NCC(N)C(=O)O (stereo not drawn) [2,3-diamonpropionate, 2,3-diaminopropionate]?
Answer: overcoming the iron-restricted growth defect of the SbnB mutant (S. aureus SbnB mutant): can be overcome; overcoming the iron-restricted growth defect of the SbnA mutant (S. aureus SbnA mutant): can be overcome

Question: For O=C(O)CC(O)(CC(=O)NCCC[C@@H](NC(=O)CC(O)(CC(=O)O)C(=O)O)C(=O)O)C(=O)O (stereo partly drawn) [Staphyloferrin A, staphyloferrin A], which “growth promotion of wildtype S. aureus” value (wildtype S. aureus) is on record?
Answer: Its value is “promoted growth”.

Question: What about the “growth promotion of SirA mutant” value (SirA mutant) of the same compound?
Answer: Its value is “promoted growth”.

Question: What about the “growth promotion of Hts mutant” value (Hts mutant) of the same compound?
Answer: The value was “did not promote growth”.

Question: And the “growth promotion of HtsSir mutant” value (HtsSir mutant)?
Answer: Its value is “did not promote growth”.

Question: Which results are given for O=C(O)CC(O)(CC(=O)O)C(=O)O [citrate]?
Answer: activity of SbnE towards carboxylic acid substrate (SbnE): high level of specific activity; activity of SbnF towards carboxylic acid substrate (SbnF): small level of activity

Question: With NCCNC(=O)CC(O)(CC(=O)O)C(=O)O (stereo not drawn) [citryl-Dae] as the compound, how does the “activity of SbnF towards carboxylic acid substrate” value (SbnF) read?
Answer: Its value is “high levels of activity”.

Question: With C=CC1=C(C)c2cc3[n-]c(cc4[n-]c(cc5nc(cc1n2)C(C)=C5C=C)c(C)c4CCC(=O)O)c(CCC(=O)O)c3C.[Fe+2] [heme] as the compound, how does the “heme association with purified HtsA” value (HtsA) read?
Answer: The value was “little to no heme would associate”.

Question: For O=C(O)[C@@H]1CCCN1 [proline], which “overcoming the iron-restricted growth defect of the SbnB mutant” value (S. aureus SbnB mutant) is on record?
Answer: Its value is “unable to overcome”.

Question: For N[C@@H](CNC(=O)C[C@@](O)(CC(=O)NCCNC(=O)CCC(=O)C(=O)O)C(=O)O)C(=O)O [staphyloferrin B], which “promotion of iron-starved growth of siderophore-deficient S. aureus (ΔsfaΔsbn)” value [1] is on record?
Answer: The value was “readily promote the iron-starved growth; also recorded: reaching levels comparable to growth in the presence of iron”.

Question: What does the source list for O=C(O)CCC(=O)C(=O)O [α-KG, α-ketoglutarate]?
Answer: activity of SbnE towards carboxylic acid substrate (SbnE): not; activity of SbnF towards carboxylic acid substrate (SbnF): not; activity of SbnC towards carboxylic acid substrate (SbnC): activates

Question: What does the source list for NC(CNC(=O)CC(O)(CC(=O)O)C(=O)O)C(=O)O (stereo not drawn) [β-citryl-Dap intermediate]?
Answer: reaction with CAS reagent [2]: reacted strongly; promotion of iron-starved growth of S. aureus (S. aureus): unable to promote; activity of SbnF towards carboxylic acid substrate (SbnF): did not react

Reference: US8637657B2, “Siderophore-mediated iron uptake in bacterial infection” (priority 2008, dated 2014)
